Source: US20210122771A1, “NEW MOLECULAR TWEEZERS AGAINST NEUROLOGICAL DISORDERS AND VIRAL INFECTIONS” (The Regents of the University of California, priority 2018, published 2021)
Read-outs that look alike come from different tables or passages of the source.

Assays:
[1] = PK screening in mice, three routes, two time points; details: male, mouse, in vivo
Procedure: Each compound was administered to the mice at 2 mg/kg intravenously (I.V.), 2 mg/kg subcutaneously (S.C.), or 10 mg/kg orally (P.O.).

[2] = CellTiter-Glo cell viability assay on TZM-bl cells; type: cell-based; details: human, CellTiter-Glo (ATP)
Procedure: (§1) FIG. 1, panels A and B, illustrates the results of a cell viability assay with the new molecular tweezers. Indicated concentrations of compounds were added to the cells and incubated for 2 days before […]-GLO® assay (Promega) was performed on TZM-bl cells (HIV-1 target cells) (panel A), or on Vero E6 (ZIKV target cells) (panel B). The experiment was performed in triplicates, raw data were normalized to untreated cells. Data represent mean±SD (n=3).
(§2) To determine the maximally tolerated concentrations of these derivatives in cell culture and to exclude cytotoxic effects in viral infectivity assays, a CellTiter-Glo® assay (Promega) was performed. This assay quantifies the amount of intracellular ATP. The compounds were directly added to TZM-bl cells (a HeLa derived HIV-1 reporter cell line TZM-bl; 20,000 cells/well, FIG. 1, panel A) or Vero E6 cells (a Zika virus (=ZIKV) permissive cell line; 12,000 cells/well, FIG. 1, panel B). Cell viability was quantified two days later by measuring ATP levels.

[3] = CellTiter-Glo cell viability assay on Vero E6 cells; type: cell-based; details: African green monkey, CellTiter-Glo (ATP)
Procedure: as §1, §2

Aβ42-induced toxicity = assay: Inhibition of Aβ42 toxicity in differentiated PC-12 cells (MTT/LDH); type: cell-based, rat; details: Rattus norvegicus, PC-12, read-out: Inhibition of Aβ42 toxicity, IC50 (MTT)
Procedure: (§3) The highest concentration tested was 100 μM. Non-toxic compounds then were tested for their ability to inhibit the toxicity of 10 μM Aβ42 in the same assay. The parent compound 1 was used as a control in both cases.

Full 24-h PK profile = type: in vivo, mice; details: 24-h profile; for Brain AUC / AUC / half-life: 7 time points; for AUC / half-life / bioavailability: mouse, in vivo; for AUC: read-out: Blood AUC; for bioavailability: read-out: Blood Bioavailability
Procedure: Based on the 2-time-point screen results, a full 24-h PK profile has been obtained for compounds 13 and 14. In these experiments, the blood and brain levels were measured at 7 time points—0.3, 0.6, 1, 2, 4, 8, and 24 h. Data for 1 are given for reference.

ZIKV strain MR766 = assay: ZIKV infectivity (MTT) assay on Vero E6 cells; type: cell-based, Zika virus
Procedure: FIG. 2, panels A and B, illustrates the results of a ZIKV infectivity (MTT) assay with the new molecular tweezers on Vero E6 cells. […] After 3-4 days, the ZIKV induced cytopathic effect was quantified using the MTT assay.
20-μl of MTT solution (5 mg/ml in PBS) were added to 200 μl cells. Following a 3-h incubation at 37° C., cell-free supernatants were discarded and formazan crystals were dissolved in 100 μl of a 1:2 mixture of dimethyl sulfoxide and ethanol. Absorption was measured at 490 nm and baseline corrected at 650 nm using a VMax Kinetic ELISA microplate reader (Molecular Devices). To determine infection rates, sample values were subtracted from untreated control set to 100%. Error bars are standard deviations of replicates (FIG. 2, panels A and B). […] The selectivity index (SI) (Table 12) is calculated for each compound by dividing its CC50 value by the IC50 value.

CCR5-tropic HIV-1 strain = assay: HIV-1 infectivity assay on TZM-bl cells; type: cell-based
Procedure: FIG. 3, panels A and B, illustrates the results of an HIV-1 infectivity assay with new tweezers on TZM-bl cells. CR5-tropic HIV-1 strain (20 ng/ml p24 antigen) was incubated for 10 min at 37° C. with indicated concentrations of the different compounds before these mixtures were used to infect TZM-bl cells. Three days later, infection rates were determined by measuring β-galactosidase activity.
Infection rates were determined 3 days post infection by detecting β-galactosidase activity in cellular lysates using the Tropix Gal-Screen kit (Applied Biosystems) and an Orion microplate luminometer (Berthold). Values represent % infection (mean) compared to buffer control (FIG. 3, panels A and B). […] Half-maximal inhibitory concentrations (IC50 values), were calculated. […] The selectivity index (SI) is calculated for each compound by dividing its CC50 value by its IC50 value (Table 12).

[4] = tested on: differentiated rat pheochromocytoma (PC-12) cells; assay: Self-toxicity in differentiated PC-12 cells (MTT and/or LDH); details: MTT and/or LDH assays, highest concentration tested 100 μM
Procedure: as §3

[5] = tested on: enveloped viruses such as HIV-1 and HSV-2; details: cited from earlier work
RGD = type: binding; details: fluorometric titration in aqueous buffer at neutral pH; read-out: Dissociation constant Kd, RGD
KAA = type: binding; details: fluorometric titration in aqueous buffer at neutral pH; read-out: Dissociation constant Kd, KAA
[6] = CC50 value divided by IC50 value

SMILES: O=P(O)(O)Oc1c2c(c(OP(=O)(O)O)c3c1C1CC3c3cc4c(cc31)C1CC4c3ccccc31)C1CC2c2cc3c(cc21)C1CC3c2ccccc21 [Compound 1, CLR01, reference compound]
- bioavailability at 40 min ([1]; 2 mg/kg): 101%
- bioavailability at 4 h ([1]; 2 mg/kg): 86.6%
- bioavailability at 40 min ([1]; 10 mg/kg): 0.5%
- bioavailability at 4 h ([1]; 10 mg/kg): 0%
- Kp at 40 min ([1]; iv, 2 mg/kg): 0
- Kp at 4 h ([1]; iv, 2 mg/kg): 0.002
- Kp at 40 min ([1]; po, 10 mg/kg): 0
- Kp at 4 h ([1]; po, 10 mg/kg): 0
- Kp at 40 min ([1]; sc, 2 mg/kg): 0
- Kp at 4 h ([1]; sc, 2 mg/kg): 0
- CC50 at 2 days [2]: 964 µM
- CC50 at 2 days [3]: 584 µM
- IC50 (Aβ42-induced toxicity): 69 µM
- LogBB (Full 24-h PK profile; I.V.): −3.62
- Brain AUC (Full 24-h PK profile; I.V.): 1.63
- Brain AUC (Full 24-h PK profile; P.O.): 0
- LogBB (Full 24-h PK profile; S.C.): 0.34
- AUC (Full 24-h PK profile; iv, I.V.): 6800 ng·h/mL
- half-life (Full 24-h PK profile; iv, I.V., read-out: Blood T1/2 (converted)): 1.8 h
- half-life (Full 24-h PK profile; iv, I.V., read-out: Brain T1/2 (converted)): 4 h
- AUC (Full 24-h PK profile; po, P.O.): 8.94 ng·h/mL
- half-life (Full 24-h PK profile; po, P.O., read-out: Blood T1/2 (converted)): 1.3 h
- bioavailability (Full 24-h PK profile; po, P.O.): 0.1%
- AUC (Full 24-h PK profile; sc, S.C.): 4740 ng·h/mL
- half-life (Full 24-h PK profile; sc, S.C., read-out: Blood T1/2 (converted)): 1.05 h
- half-life (Full 24-h PK profile; sc, S.C., read-out: Brain T1/2 (converted)): 0.9 h
- bioavailability (Full 24-h PK profile; sc, S.C.): 69.7%
- SI (Vero E6/ZIKV) (ZIKV strain MR766; [6]): 13
- IC50 (ZIKV strain MR766; Zika virus, Vero C1008, read-out: IC50 ZIKV): 46 µM
- SI (TZM-bl/HIV-1) (CCR5-tropic HIV-1 strain; [6]): 26
- IC50 (CCR5-tropic HIV-1 strain; Human immunodeficiency virus 1, TZM-bl, read-out: IC50 HIV-1): 37 µM
- Self-toxicity [4]: Non-toxic
- concentrations required to inhibit enveloped viruses such as HIV-1 and HSV-2 ([5]; Lump et al. (2015) eLife, 4: e05397): median micromolar range
- antiviral activity in the presence of serum ([5]; Rocker et al. (2018) Antiviral Res. 152: 26-35): inhibited
- Kd (RGD): 86 µM
- Kd (KAA): 30 µM
